The assay has as its system HEK-293-nNOS cells transfected with mICE-lacZ (caspase-1). Briefly: Inhibition of caspase-induced apoptosis by endogenous NO in HEK-293-nNOS cells transfected with mICE-lacZ (propidium iodide, apoptotic nuclei count). Format: cell-based. To be noted: 6 μM 4-Br-A23187 for 48 h after caspase-1 transfection; raises Ca2+ to activate nNOS and produce NO; p≦0.007; FIG. 1. As for the experimental part: HEK-293 cells [Bredt et al., Nature 351: 714-719 (199)] overexpressing nNOS were transiently transfected with mICE-lacZ (containing the caspase-1 construct [Miura et al., Cell 75: 653-660 (1993)] or control placZ using the calcium phosphate precipitation method. Following transfection, cells were incubated in absence (0 μM) or presence of 6 μM 4-Br-A23187 for 48 h. Cells were then permeabilized, fixed, and stained with propidium iodide. Apoptotic nuclei were counted in ≧12 fields and results expressed as a percentage of total nuclei. The results are shown in FIG. 1. Values are the mean ± SEM for n≧3 from at least two experiments.

With `CNc1c(Br)cc2oc(C[C@H]3OC4(CC[C@H]3C)O[C@H]([C@H](C)C(=O)c3ccc[nH]3)[C@H](C)C[C@H]4C)nc2c1C(=O)O` (stereo partly shown) [4-Br-A23187], the “apoptosis (apoptotic nuclei as percentage of total nuclei)” value is on record as “highly significant decrease in apoptosis”.

The values above are taken from patent US20070218121A1, “Compounds that inhibit caspase activity for treating glaucoma” (priority 1997, published 2007).
